Usually EC50 stands for the concentration that produces a half-maximal response.

Read-outs that look alike come from different tables or passages of the source.

A summary of the method of data set [1]: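 Compounds at 1 uM were incubated in duplicate with dog, rat or human liver microsomes (0.5 mg/mL protein) and an NADPH-regenerating system, sampled at 2, 12, 25, 45 and 65 minutes. Remaining parent was measured by LC/MS/MS, and Clint was calculated from the in vitro t1/2.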
The test system of data set [2] is HIV-1 (IIIB) in MT-4 cells. As to the kind of experiment: MT-4 HIV assay. The class given is cell-based. Summed up: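 MT-4 cells infected with HIV-1 IIIB (1:250 stock dilution) were incubated with 1:3 serially diluted compounds in RPMI with 10% FBS for 5 days at 37 °C. Cell Titer Glo luminescence was the readout. Plates included mock-infected wells, no-drug wells and 5 uM AZT controls.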

Where [3] appears, read: Human immunodeficiency virus 1, MT4, 120 h, HIV-1 (IIIB), MT-4 cells, 5 days, Cell Titer Glo, read-out: EC50.
Where [4] appears, read: human liver microsomes 0.5 mg/mL, 1 uM compound, NADPH.
The mark [5] stands for this setting: rat liver microsomes 0.5 mg/mL, 1 uM compound, NADPH.

For `COC(=O)N[C@H](C(=O)N[C@@H](Cc1ccc(C#Cc2ccc(N3CC4CCC(C3)N4C3COC3)nc2)cc1)[C@@H](O)CN(Cc1c(F)cc(-c2cc[nH]n2)cc1F)NC(=O)[C@@H](NC(=O)OC)C(C)(C)C(F)(F)F)C(C)(C)C(F)(F)F` [Example 126, Methyl ((5S,8S,9S,14S)-11-(2,6-difluoro-4-(1H-pyrazol-3-yl)benzyl)-16,16,16-trifluoro-9-hydroxy-15,15-dimethyl-8-(4-((6-(8-(oxetan-3-yl)-3,8-diazabicyclo[3.2.1]octan-3-yl)pyridin-3-yl)ethynyl)benzyl)-3,6,13-trioxo-5-(1,1,1-trifluoro-2-methylpropan-2-yl)-2-oxa-4,7,11,12-tetraazahexadecan-14-yl)carbamate], the “Human Pred Cl.” value in data set [1] (human, microsomes) is 0.45 L/H/kg. Besides, the “Rat. Pred. Cl.” value in data set [1] (rat, microsomes) is given as less than 0.18 L/H/kg. Moreover, the EC50 in data set [2] (setting [3]) was found to be 4.13 nM.

`COC(=O)N[C@H](C(=O)N[C@@H](Cc1ccc(C#Cc2ccc(N3CC4CCC(C3)N4C3COC3)nc2)cc1)[C@@H](O)CN(Cc1c(F)cc(-c2cc(OC3COC3)ccn2)cc1F)NC(=O)[C@@H](NC(=O)OC)C(C)(C)C(F)(F)F)C(C)(C)C(F)(F)F` [Example 127, Methyl ((5S,8S,9S,14S)-11-(2,6-difluoro-4-(4-(oxetan-3-yloxy)pyridin-2-yl)benzyl)-16,16,16-trifluoro-9-hydroxy-15,15-dimethyl-8-(4-((6-(8-(oxetan-3-yl)-3,8-diazabicyclo[3.2.1]octan-3-yl)pyridin-3-yl)ethynyl)benzyl)-3,6,13-trioxo-5-(1,1,1-trifluoro-2-methylpropan-2-yl)-2-oxa-4,7,11,12-tetraazahexadecan-14-yl)carbamate]: the “Human Pred Cl.” value in data set [1] (human, microsomes) came out at 0.54 L/H/kg. In addition, in data set [1] (rat, microsomes), the “Rat. Pred. Cl.” value amounted to 1.3 L/H/kg. In addition, the half-maximal effective concentration (EC50) in data set [2] (setting [3]) was 4.19 nM.

Regarding `COC(=O)N[C@H](C(=O)N[C@@H](Cc1ccc(C#Cc2ccc(N3CC4CCC(C3)N4C3COC3)nc2)cc1)[C@@H](O)CN(Cc1c(F)cc(-c2nnc(C3CC3)o2)cc1F)NC(=O)[C@@H](NC(=O)OC)C(C)(C)C(F)(F)F)C(C)(C)C(F)(F)F` [Example 129, Methyl ((5S,8S,9S,14S)-11-(4-(5-cyclopropyl-1,3,4-oxadiazol-2-yl)-2,6-difluorobenzyl)-16,16,16-trifluoro-9-hydroxy-15,15-dimethyl-8-(4-((6-(8-(oxetan-3-yl)-3,8-diazabicyclo[3.2.1]octan-3-yl)pyridin-3-yl)ethynyl)benzyl)-3,6,13-trioxo-5-(1,1,1-trifluoro-2-methylpropan-2-yl)-2-oxa-4,7,11,12-tetraazahexadecan-14-yl)carbamate], the “Human Pred Cl.” value in data set [1] (human, microsomes) is on record as less than 0.11 L/H/kg. The EC50 in data set [2] (setting [3]) worked out at 3.62 nM.

In the case of `COC(=O)N[C@H](C(=O)NNC[C@H](O)[C@H](Cc1ccc(C#Cc2cnc(N3CC4CCC(C3)N4C3COC3)nc2)cc1)NC(=O)[C@@H](NC(=O)OCCc1c(F)cc(-c2cn(C34CC(C3)C4)nn2)cc1F)C(C)(C)C(F)(F)F)C(C)(C)C(F)(F)F` [Example 131, Methyl ((5S,8S,9S,14S)-1-(4-(1-(bicyclo[1.1.1]pentan-1-yl)-1H-1,2,3-triazol-4-yl)-2,6-difluorobenzyl)-16,16,16-trifluoro-9-hydroxy-15,15-dimethyl-8-(4-((2-(8-(oxetan-3-yl)-3,8-diazabicyclo[3.2.1]octan-3-yl)pyrimidin-5-yl)ethynyl)benzyl)-3,6,13-trioxo-5-(1,1,1-trifluoro-2-methylpropan-2-yl)-2-oxa-4,7,11,12-tetraazahexadecan-14-yl)carbamate], the “Human Pred Cl.” value in data set [1] (human, microsomes) is recorded as less than 0.11 L/H/kg. In addition, in data set [2] (setting [3]), the EC50 was found to be 5.24 nM.

Consider `COC(=O)N[C@H](C(=O)N[C@@H](Cc1ccc(C#Cc2cnc(N3CC4CCC(C3)N4C3COC3)nc2)cc1)[C@@H](O)CN(Cc1c(F)cc(-c2cn(C(F)F)cn2)cc1F)NC(=O)[C@@H](NC(=O)OC)C(C)(C)C(F)(F)F)C(C)(C)C(F)(F)F` [Example 133, Methyl ((5S,10S,11S,14S)-8-(4-(1-(difluoromethyl)-1H-imidazol-4-yl)-2,6-difluorobenzyl)-16,16,16-trifluoro-10-hydroxy-15,15-dimethyl-11-(4-((2-(8-(oxetan-3-yl)-3,8-diazabicyclo[3.2.]octan-3-yl)pyrimidin-5-yl)ethynyl)benzyl)-3,6,13-trioxo-5-(1,1,1-trifluoro-2-methylpropan-2-yl)-2-oxa-4,7,8,12-tetraazahexadecan-14-yl)carbamate], for which the “Human Pred Cl.” value in data set [1] (setting [4]) is reported as less than 0.11 L/H/kg. Also, in data set [1] (setting [5]), the “Rat. Pred. Cl.” value is less than 0.18 L/H/kg. For the same compound, the half-maximal effective concentration (EC50) in data set [2] (HIV-1 (IIIB), MT-4 cells, 5 days, Cell Titer Glo, read-out: EC50) was 3.44 nM.

For the compound `COC(=O)N[C@H](C(=O)N[C@@H](Cc1ccc(C#Cc2ccc(-c3cn4c(n3)CN(C)C(=O)C4)cc2)cc1)[C@@H](O)CN(Cc1c(F)cc(-c2ccn(C(F)F)n2)cc1F)NC(=O)[C@@H](NC(=O)OC)C(C)(C)C(F)(F)F)C(C)(C)C(F)(F)F` [Example 134, Methyl ((5S,8S,9S,14S)-11-(4-(1-(difluoromethyl)-1H-pyrazol-3-yl)-2,6-difluorobenzyl)-16,16,16-trifluoro-9-hydroxy-15,15-dimethyl-8-(4-((4-(7-methyl-6-oxo-5,6,7,8-tetrahydroimidazo[1,2-a]pyrazin-2-yl)phenyl)ethynyl)benzyl)-3,6,13-trioxo-5-(1,1,1-trifluoro-2-methylpropan-2-yl)-2-oxa-4,7,11,12-tetraazahexadecan-14-yl)carbamate], in data set [1] (setting [4]), the “Human Pred Cl.” value is less than 0.11 L/H/kg. Besides, the “Rat. Pred. Cl.” value in data set [1] (setting [5]) is on record as less than 0.18 L/H/kg. Besides, in data set [2] (setting [3]), the EC50 worked out at 5.52 nM.

Take `COC(=O)N[C@H](C(=O)N[C@@H](Cc1ccc(C#Cc2ccc(N3C[C@H]4C[C@@H]3CN4C3COC3)nc2)cc1)[C@@H](O)CN(Cc1c(F)cc(-c2cc(F)ccn2)cc1F)NC(=O)[C@@H](NC(=O)OC)C(C)(C)C(F)(F)F)C(C)(C)C(F)(F)F` [Example 138, Methyl ((5S,8S,9S,14S)-11-(2,6-difluoro-4-(4-fluoropyridin-2-yl)benzyl)-16,16,16-trifluoro-9-hydroxy-15,15-dimethyl-8-(4-((6-((1R,4R)-5-(oxetan-3-yl)-2,5-diazabicyclo[2.2.1]heptan-2-yl)pyridin-3-yl)ethynyl)benzyl)-3,6,13-trioxo-5-(1,1,1-trifluoro-2-methylpropan-2-yl)-2-oxa-4,7,11,12-tetraazahexadecan-14-yl)carbamate]: the “Human Pred Cl.” value in data set [1] (setting [4]) is recorded as 0.17 L/H/kg. In data set [1] (setting [5]), the “Rat. Pred. Cl.” value was 0.95 L/H/kg. For the same compound, the concentration for a half-maximal effect (EC50) in data set [2] (setting [3]) was 2.32 nM.

`COC(=O)N[C@H](C(=O)N[C@@H](Cc1ccc(C#Cc2ccc(N3CC4CCC(C3)N4C3(C)COC3)nc2)cc1)[C@@H](O)CN(Cc1c(F)cc(-c2ccn(C(F)F)n2)cc1F)NC(=O)[C@@H](NC(=O)OC)C(C)(C)C(F)(F)F)C(C)(C)C(F)(F)F` [Example 144, Methyl ((5S,8S,9S,14S)-11-(4-(1-(difluoromethyl)-1H-pyrazol-3-yl)-2,6-difluorobenzyl)-16,16,16-trifluoro-9-hydroxy-15,15-dimethyl-8-(4-((6-(8-(3-methyloxetan-3-yl)-3,8-diazabicyclo[3.2.1]octan-3-yl)pyridin-3-yl)ethynyl)benzyl)-3,6,13-trioxo-5-(1,1,1-trifluoro-2-methylpropan-2-yl)-2-oxa-4,7,11,12-tetraazahexadecan-14-yl)carbamate]: the “Human Pred Cl.” value in data set [1] (human, microsomes) is on record as 0.95 L/H/kg. The EC50 in data set [2] (setting [3]) was determined as 5.12 nM.

In the case of `COC(=O)N[C@H](C(=O)N[C@@H](Cc1ccc(C#Cc2ccc(N3CCN([C@H]4CCOC4)CC3)nc2)cc1)[C@@H](O)CN(Cc1c(F)cc(-c2ccn(C(F)F)n2)cc1F)NC(=O)[C@@H](NC(=O)OC)C(C)(C)C(F)(F)F)C(C)(C)C(F)(F)F` [Example 145, Methyl ((5S,8S,9S,14S)-11-(4-(1-(difluoromethyl)-1H-pyrazol-3-yl)-2,6-difluorobenzyl)-16,16,16-trifluoro-9-hydroxy-15,15-dimethyl-3,6,13-trioxo-8-(4-((6-(4-((S)-tetrahydrofuran-3-yl)piperazin-1-yl)pyridin-3-yl)ethynyl)benzyl)-5-(1,1,1-trifluoro-2-methylpropan-2-yl)-2-oxa-4,7,11,12-tetraazahexadecan-14-yl)carbamate], in data set [1] (setting [4]), the “Human Pred Cl.” value is listed as less than 0.11 L/H/kg. The EC50 in data set [2] (Human immunodeficiency virus 1, MT4, 120 h) stood at 5.06 nM.

Regarding `COC(=O)N[C@H](C(=O)N[C@@H](Cc1ccc(C#Cc2ccc(N3CCN([C@@H]4CCOC4)CC3)nc2)cc1)[C@@H](O)CN(Cc1c(F)cc(-c2ccn(C(F)F)n2)cc1F)NC(=O)[C@@H](NC(=O)OC)C(C)(C)C(F)(F)F)C(C)(C)C(F)(F)F` [Example 146, Methyl ((5S,8S,9S,14S)-11-(4-(1-(difluoromethyl)-1H-pyrazol-3-yl)-2,6-difluorobenzyl)-16,16,16-trifluoro-9-hydroxy-15,15-dimethyl-3,6,13-trioxo-8-(4-((6-(4-((R)-tetrahydrofuran-3-yl)piperazin-1-yl)pyridin-3-yl)ethynyl)benzyl)-5-(1,1,1-trifluoro-2-methylpropan-2-yl)-2-oxa-4,7,11,12-tetraazahexadecan-14-yl)carbamate], the “Human Pred Cl.” value in data set [1] (setting [4]) is reported as less than 0.11 L/H/kg. Moreover, in data set [2] (setting [3]), the EC50 worked out at 8.17 nM.

These data come from patent publication US10294234B2, “HIV inhibitor compounds” (priority 2017, dated 2019).
